For 89 compounds, melting point results are on record in a melting point compilation (Tetko et al.; mined from patent text by program, amines drawn as free bases though some values may be those of a salt).

For `COc1ccc(-n2nnnc2C(F)(F)F)cc1CN[C@H]1CCN(C(=O)CNC(C)=O)C[C@H]1c1ccccc1`, the melting point – broadly, the temperature, or range, at which the solid turns liquid – lay within 112 to 115 °C.

`CC(C)(C)OC(=O)NCC(=O)N1[C@@H](C(=O)OC(C)(C)C)CC[C@H]1c1ccccc1` (racemic): the melting point worked out at 112 °C.

In turn, `Clc1cccc(Nc2ncnc(-c3ccnc(Cl)c3)n2)c1` had a melting point of 178 to 180 °C.

Compound `COc1c2occc2c(OC)c2c(=O)cc(N3CCC(C4CCN(c5cc(=O)c6c(OC)c7ccoc7c(OC)c6o5)CC4)CC3)oc12` showed a melting point of 126 to 129 °C.

In the case of `CCOC(=O)c1cn(-c2ccccn2)nc1C`, the melting point fell in the range of 79 to 80 °C.

In turn, `CCSc1nccn1-c1ccc(O)cc1` gave a melting point of 165 °C.

The compound `Cc1cccc(NC(=O)CN2CCN(c3ncccc3C#N)CC2)c1C` gave a melting point of 124 to 126 °C.

`CCc1cc(=O)n(C)c2c1C(=O)CCC2` registered a melting point of 65 to 70 °C.

`C[C@H](N)c1ccc(O)cc1` returned a melting point of 120 °C.

As to `N#CC1=C(C2CC2)Nc2n[nH]cc2C1c1cccc(Cl)c1Cl` (centres undefined), the melting point is above 250 °C.

For `Cc1nnc(-c2ccc3occ(-c4cc(C(F)(F)F)ccc4Cl)c3c2)o1`, the melting point is 188 to 189 °C.

The compound `CCOC(=O)C1=CC(=O)CC(c2ccc(Cl)c(OC)c2F)N1` (centres undefined) displayed a melting point of 116 to 118 °C.

In turn, `Cc1ccc2c(c1)Sc1ccc(Cl)cc1CC2N1CCN(CCN2CCOC2=O)CC1` (centres undefined) returned a melting point of 161 to 163 °C.

For `CC(=O)Nc1cccc2c1C(=O)C1(NC(C)=O)c3ccc(C(C)C)cc3OC21O` (centres undefined), the melting point lay within 189 to 191 °C.

Compound `Cc1cccc(C)c1NC(=O)c1ccc(C(F)(F)F)cc1` came in with a melting point of 206 to 207 °C.

The compound `COC[C@@H]1Cc2ccccc2N1C(=O)OC(C)(C)C` registered a melting point of 173 to 175 °C.

Compound `Cc1nc(N2CCN(Cc3ccc(C(F)F)o3)C2=O)sc1C(=O)NCc1cccnc1` gave a melting point of 142 to 143 °C.

Regarding `CC(=O)N1c2cc(Cl)ccc2OP1c1ccccc1` (centres undefined), the melting point lay within 56 to 58 °C.

`CC(=O)Oc1c(Cl)c(C(C)(C)C)oc(=O)c1-c1c(C)cc(C)cc1C` gave a melting point of 116 to 118 °C.

`CC(C)(C)OC(=O)NC(Cc1ccc(C=O)cc1)C(=O)N1CCCC1` (centres undefined) showed a melting point of 134 °C.

The compound `CCN1C(=O)N=NC1c1ccc(Cl)cc1` (centres undefined) returned a melting point of 190 to 197 °C.

In the case of `O=C(C=C(c1ccccc1)c1ccc(Cl)cc1)Nc1ccc(C(=O)O)cc1`, the melting point lay in the range of 220 to 223 °C.

Regarding `C#CCN1N=C(c2ccc(OC)c(OC)c2)[C@@H]2CCCC[C@@H]2C1=O` (relative stereo), the melting point lay within 118 to 121 °C.

For `CCOC(=O)Nc1ccc(C(=O)c2ccccc2)cc1COC1CCCCO1` (centres undefined), the melting point came to 116 °C.

The compound `Cc1cc([N+](=O)[O-])c(O)c2c1CCC2=O` displayed a melting point of 154 to 157 °C.

In turn, `COC(=O)c1cc(-c2ccc(OCc3ccccc3)cc2)n(-c2ccc(S(N)(=O)=O)cc2)n1` returned a melting point of 196 to 198 °C.

The compound `CC(=O)C=Cc1ccc(CCNS(=O)(=O)c2ccc(Cl)cc2)cc1` had a melting point of 111 to 113 °C.

`CCOC(=O)N1CCC(Nc2ccc(F)cc2[N+](=O)[O-])CC1` returned a melting point of 115 to 116 °C.

For `Nc1ccc([N+](=O)[O-])c(NC(=O)c2ccccc2)c1`, the melting point lay in the range of 203 to 207 °C.

Regarding `CN1NC=CC1c1ccc(C(=O)N2Cc3cccn3Cc3ccccc32)c(Cl)c1` (centres undefined), the melting point fell in the range of 78 to 79 °C.

Compound `COc1cc(N)ccc1S(=O)(=O)Nc1ccccc1C` gave a melting point of 189 to 191 °C.

Take `O=C(O)c1cn([C@@H]2C[C@@H]2F)c2c(Cl)c(Cl)ccc2c1=O`: the melting point is 198 to 201 °C.

With `COc1ccc(-c2nc(C(=O)Cl)c(C)o2)cc1`, the melting point was 89 °C.

`O=C(Nc1n[nH]c2cc(Cl)ccc12)c1cc(Cl)cc(Cl)c1` displayed a melting point of 240 °C.

Consider `Cc1cc2c(-c3ccccc3)c(CC#N)n(C)c(=O)c2cc1C`, for which the melting point is 186 to 188 °C.

The compound `CS(=O)(=O)Nc1cc2occ(Nc3ccccc3)c(=O)c2cc1Oc1ccccc1` yielded a melting point of 212 to 213 °C.

With `CC1(C)CCC(C)(C)c2cc(NCC(=O)O)ccc21`, the melting point is above 360 °C.

In the case of `CCC(C(=O)c1ccc(OCc2ccccc2)cc1)c1ccccc1` (centres undefined), the melting point was 71 °C.

As to `CC(C)(C)c1cc(Cn2c(=S)sc3ccccc32)cc(C(C)(C)C)c1O`, the melting point was in the range of 148 to 150 °C.

Regarding `Cc1ccc(C2c3c(C)c(N)c(C)c(C)c3OC2(C)C)cc1` (centres undefined), the melting point was in the range of 91 to 92 °C.

Consider `C[Si](C)(C)OC1(C#N)CCOc2c(Cl)cc(-c3ccccc3)cc21` (centres undefined), for which the melting point is 99 to 100 °C.

`CCCCCC1(C#N)CCC(c2ccc(-c3ccc(CCC)cc3)cc2)CC1` (centres undefined) had a melting point of 75 °C.

The compound `CC(C)C(N)=NC(=Nc1ccccc1)N1CCOCC1` displayed a melting point of 123 to 126 °C.

For `C[C@]1(CN2CCN(C3CCN(C(=O)OCc4ccc(OC(F)(F)F)cc4)CC3)CC2)Cn2cc([N+](=O)[O-])nc2O1`, the melting point lay in the range of 105 to 106 °C.

Compound `COCC(=O)Nc1cccc(C2(C3CCN(C(=O)c4ccc(O)cc4)CC3)N=C(N)N(C)C2=O)c1` (centres undefined) returned a melting point of 184 to 187 °C.

For the compound `Fc1cccc(-c2nc(-c3ccccn3)no2)c1F`, the melting point was 120 to 121 °C.

For `O=C1Nc2ccccc2SC1CCCCBr` (centres undefined), the melting point worked out at 100 °C.

With `Clc1ccc(N2CCN(CCC3OCCc4cc(Br)ccc43)CC2)cc1` (centres undefined), the melting point was 94 to 96 °C.

In turn, `CCOC(=O)C(Cc1ccc(OCCn2c(=O)sc3cc(C(=O)C4CC4)ccc32)cc1)OCC(F)(F)F` (centres undefined) came in with a melting point of 113 to 115 °C.

As for `CCOC(=O)CCNC(=O)CCCCNC(=O)OC(C)(C)C`, the melting point was determined as 28 °C.

As for `CCOC(=O)C(=CNC(C)(C)C)C(=O)c1cc(F)c(Cl)nc1Cl`, the melting point worked out at 78 °C.

In the case of `O=c1cc(C2CCCCC2)oc2ccc(OCCCCCN3CCC(O)CC3)cc12`, the melting point is 85 to 86 °C.

In the case of `COc1cc(OC)c2c(=O)[nH]c(-c3ccc(OCCNC(C)C)c(-c4ccc(C(=O)N(C)C)cc4)n3)nc2c1`, the melting point lay within 214 to 215 °C.

`CCOC(=O)[C@H]1CCC(=O)[C@@H](n2nc(-c3c(-c4ccccc4)nn4ccccc34)ccc2=O)C1` (relative stereo): the melting point was in the range of 160 to 162 °C.

The compound `[N-]=[N+]=Nc1cc(C2COCOC2)c2occc2c1` came in with a melting point of 102 to 104 °C.

As to `COc1ccc(Oc2c(C)cc(CO)cc2C)cc1C(C)C`, the melting point lay within 78 to 80 °C.

On to `Cc1noc(NS(=O)(=O)c2cccc(-c3ccccc3)c2)c1Cl`, for which the melting point lay in the range of 84 to 86 °C.

`COc1ccc(-n2nc(C(F)F)cc2-c2ccc(S(C)(=O)=O)cc2)cc1` registered a melting point of 135 °C.

With `C#CCN1C[C@H](OC(C)=O)CC1=O`, the melting point was in the range of 46.5 to 47.5 °C.

In turn, `NC(=O)c1cn(Cc2ccccc2F)nn1` came in with a melting point of 220 to 222 °C.

Consider `CCCCCc1cc(OC)c(C2=C[C@H]3CC[C@]2(C(=O)O)C3(C)C)c(OC)c1`, for which the melting point was 84 to 86 °C.

Consider `CC1NC(=O)NN=C1c1ccc(OCC(=O)NN)c(Cl)c1` (centres undefined), for which the melting point was in the range of 252 to 254 °C.

For `O=S(=O)(c1ccc(Cl)cc1)C(Cc1ccccn1)c1cc(F)ccc1F` (centres undefined), the melting point lay within 105 to 107 °C.

On to `O=C1c2ccccc2S(=O)(=O)c2cc(C3=NCCN3)ccc21`, for which the melting point lay within 241 to 242 °C.

The compound `Nc1ccc(Sc2ccccc2)cn1` displayed a melting point of 127 to 129 °C.

`CCN1CC(=O)N(C)c2cc(Nc3ncc(Cl)c(Nc4ccc(OC)c(CNCCO)c4)n3)c(OC)cc2C1`: the melting point was 65 to 70 °C.

Consider `Clc1ncc(OCc2ccsc2)cn1`, for which the melting point is 73 to 76 °C.

In the case of `CCCC(CCCCCN1C(=O)c2ccccc2C1=O)(C(=O)OCC)C(=O)OCC`, the melting point was in the range of 51 to 52 °C.

`O=C(c1cc2ccc(F)cc2[nH]1)C12CC3CC(CC(C3)C1)C2` returned a melting point of 242 to 244 °C.

For `Brc1ccc2c(ccc3cc(Br)ccc32)c1`, the melting point lay within 163 to 166 °C.

For `CCCC(=O)Nc1nn(COCC[Si](C)(C)C)c2cc(Cl)c(Br)cc12`, the melting point was found to be 130 °C.

With `CCOC(=O)C1=C(COCCCN(C)C)NC(C)=C(C(=O)OC)C1c1ccccc1Cl` (centres undefined), the melting point was 77 to 78 °C.

For the compound `CCOC(=O)c1c(CN(CC)CC)nc2sc3c(c2c1-c1ccc(OC)c(OC)c1)CCNC3`, the melting point was 72 to 75 °C.

`COc1ccc2cc(C(=O)C(C)Br)ccc2c1Br` (centres undefined): the melting point fell in the range of 166 to 167 °C.

`CCN1OCCC(=Cc2cc(C(C)(C)C)c(O)c(C(C)(C)C)c2)C1=O` yielded a melting point of 166 to 167 °C.

As for `CCCC12CCC3C4=C(CCC3C1CCC2=O)CC(OC)=CC4` (centres undefined), the melting point fell in the range of 128 to 131 °C.

With `FC(F)(F)c1cc(C2CCCO2)c2cccc(C(F)(F)F)c2n1` (centres undefined), the melting point was in the range of 61 to 61.7 °C.

`CC1(C(O)(C=Cc2ccc(Cl)cc2)Cn2cncn2)CC1(F)F` (centres undefined) came in with a melting point of 131 °C.

In the case of `CCOc1ccc(C(=O)Nc2ccc3ccc(OC)nc3n2)cc1`, the melting point was found to be 145 °C.

In turn, `COC1=C(OC)C(O)C(CC=C(C)CCC=C(C)CCC=C(C)C)C(C)C1=O` (centres undefined) gave a melting point of 48 to 52 °C.

Turning to `O=C1CCC(N2C(=O)c3cccc(CNC(=O)Nc4cccc5ccccc45)c3C2=O)C(=O)N1` (centres undefined), the melting point was 250 to 252 °C.

Compound `COC(=O)c1ccc(OCCF)cc1` had a melting point of 77 °C.

As for `Cc1ccccc1-c1c(C(=O)O)c(=O)n(C)c2ccc(Cl)cc12`, the melting point is 202 to 203 °C.

In turn, `CCc1cn(C[C@@H](C)O)c2cc(Cl)c(F)cc12` returned a melting point of 112 to 114 °C.

The compound `CC(O)(CCCc1ccc(Cl)cc1)c1ccc(OCc2ccc3ccccc3n2)cc1` (centres undefined) came in with a melting point of 110 to 112 °C.

As for `COc1c(OC2CCC3(CC2)OCC(C)(C)CO3)ccnc1C`, the melting point worked out at 90 °C.

Turning to `COP(=O)(OC)C(NC=O)P(=O)(OC)OC`, the melting point was 95 °C.

On to `COc1cccc(/C=C(/C(=O)O)c2cc(OC)c(OC)c(OC)c2)c1`, for which the melting point was 68 to 70 °C.

In turn, `OCC1=C(c2cc3ccccc3s2)N2CCN=C2S1` showed a melting point of 138 to 140 °C.
